Test results from patent publication US5010097A, “Novel compounds” (Beecham Pharmaceuticals, priority 1987, dated 1991).

Molecular target: T1, human collagenase (human lung fibroblast cell line WI-38) (Homo sapiens, UniProt P03956)
T1 construct: purified from culture supernatants from the human lung fibroblast cell line, WI-38; endogenous in cells; host or cells: WI-38 human lung fibroblasts (enzyme purified from culture supernatants)
T1 sequence (P03956 100-469): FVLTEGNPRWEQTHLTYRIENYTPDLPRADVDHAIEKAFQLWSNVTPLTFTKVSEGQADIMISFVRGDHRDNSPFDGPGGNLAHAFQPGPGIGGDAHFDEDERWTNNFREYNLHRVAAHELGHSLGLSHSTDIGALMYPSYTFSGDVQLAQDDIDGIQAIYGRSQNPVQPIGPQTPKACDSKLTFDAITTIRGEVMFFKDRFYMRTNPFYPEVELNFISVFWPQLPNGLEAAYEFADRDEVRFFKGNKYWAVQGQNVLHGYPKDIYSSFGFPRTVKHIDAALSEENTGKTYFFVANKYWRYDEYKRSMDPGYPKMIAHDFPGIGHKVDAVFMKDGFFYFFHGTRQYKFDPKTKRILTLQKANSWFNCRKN
Experiment: Inhibition of Human Lung Fibroblast Collagenase (collagenase inhibitor assay, 14C-acetylated rat skin Type I collagen substrate)
Format: biochemical
Procedure: The test is performed essentially as in Cawston and Barrett Anal. Biochem. 99, 340-345 (1979). Compounds for testing are dissolved in methanol and added to purified human collagenase purified from culture supernatants from the human lung fibroblast cell line, WI-38, diluted in a suitable aqueous buffer. After a 5 min pre-incubation at 37° C., the assay tubes are cooled to 4° and ^14 C-acetylated rat skin Type I collagen is added. The assay tubes are incubated at 37° C. overnight. The ^14 C-collagen forms insoluble fibrils which are the substrate for the enzyme.
To terminate the assay, the assay tubes are spun at 12000 rpm for 25 min. Undigested ^14 C-collagen remains as insoluble fibrils and is pelleted, while digested ^14 C-collagen remains as soluble peptides in the supernatant. A sample of the supernatant is taken for liquid scintillation counting.
The activity of collagenase inhibitors (IC50 : 50% inhibitory concentration) is expressed as the concentration of compound that inhibits a known (standard) concentration of enzyme by 50%, or as the % inhibition of the collagen degradation caused by the known (standard) concentration of enzyme, at a stated concentration of the compound.

Compound	Inhibition (% inhibition of the collagen degradation) (at 1000 (column head nm), purified human collagenase from WI-38, 37 °C overnight) [%]	IC50 (purified human collagenase from WI-38 culture supernatants, 14C-collagen fibrils, 5 min pre-incubation at 37 °C, then 37 °C overnight) [µM]
CNC(=O)[C@H](Cc1ccc(OC)cc1)NC(=O)C(CC(C)C)C(S)CC(C)=O (some centres unmarked) [2 C/D]	58	–
CNC(=O)[C@H](Cc1ccc(OC)cc1)NC(=O)C(CC(C)C)C(S)CC(C)=O (single isomer, unassigned) [2 A]	–	0.014
